Results: ChEMBL document CHEMBL1201862, “PubChem BioAssay data set” (2004)
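Cultured in 96-well plates, cells were exposed to test compound for 48 hours across five concentrations. GI50 is the concentration that inhibits growth by half.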 Calls of active or inactive are those of the source. Rule as the data show it: active = GI50 up to about 1.1 µM and inactive = higher.

Assays:
Assay in all cases: NCI-60 cell line screen, 48 h
EKVX = system: EKVX
HCC 2998 = system: HCC 2998
SR = system: SR
HT-29 = system: HT-29
U-251 = system: U-251
MCF7 = system: MCF7
SNB-75 = system: SNB-75
A549 = system: A549
HL-60 = system: HL-60
HOP-92 = system: HOP-92
NCI-H226 = system: NCI-H226
UACC-257 = system: UACC-257
BT-549 = system: BT-549
CAKI-1 = system: CAKI-1
MDA-MB-231 = system: MDA-MB-231
DU-145 = system: DU-145
SK-OV-3 = system: SK-OV-3
SK-MEL-5 = system: SK-MEL-5
K562 = system: K562
SK-MEL-28 = system: SK-MEL-28
SF-539 = system: SF-539
SF-268 = system: SF-268
NCI-H23 = system: NCI-H23
OVCAR-4 = system: OVCAR-4
IGROV-1 = system: IGROV-1
NCI-H522 = system: NCI-H522
786-0 = system: 786-0
OVCAR-5 = system: OVCAR-5
HCT-116 = system: HCT-116
NCI/ADR-RES = system: NCI/ADR-RES
OVCAR-8 = system: OVCAR-8
T47D = system: T47D
A498 = system: A498
RXF 393 = system: RXF 393
MDA-N = system: MDA-N
RPMI-8226 = system: RPMI-8226
COLO 205 = system: COLO 205
UO-31 = system: UO-31
CCRF-CEM = system: CCRF-CEM
Hs-578T = system: Hs-578T
TK-10 = system: TK-10
NCI-H460 = system: NCI-H460
ACHN = system: ACHN
SW-620 = system: SW-620
LOX IMVI = system: LOX IMVI
SNB-19 = system: SNB-19
SN12C = system: SN12C
MOLT-4 = system: MOLT-4
MDA-MB-435 = system: MDA-MB-435
Malme-3M = system: Malme-3M
SF-295 = system: SF-295
HCT-15 = system: HCT-15
KM12 = system: KM12
M14 = system: M14
UACC-62 = system: UACC-62
OVCAR-3 = system: OVCAR-3
PC-3 = system: PC-3
HOP-62 = system: HOP-62

Structure (SMILES): NNC(=O)c1ccccc1NC(=O)/C(=C/c1ccccc1O)NC(=O)c1ccccc1
- GI50 (EKVX): 33.6 µM (inactive)
- GI50 (HCC 2998): 10.9 µM (inactive)
- GI50 (SR): 0.0156 µM (active)
- GI50 (HT-29): > 100 µM (inactive)
- GI50 (U-251): 33.6 µM (inactive)
- GI50 (MCF7): 5.07 µM (inactive)
- GI50 (SNB-75): 11.6 µM (inactive)
- GI50 (A549): > 100 µM (inactive)
- GI50 (HL-60): > 100 µM (inactive)
- GI50 (HOP-92): 38.9 µM (inactive)
- GI50 (NCI-H226): 26.5 µM (inactive)
- GI50 (UACC-257): > 100 µM (inactive)
- GI50 (BT-549): 31.8 µM (inactive)
- GI50 (CAKI-1): 12.9 µM (inactive)
- GI50 (MDA-MB-231): 20.3 µM (inactive)
- GI50 (DU-145): > 100 µM (inactive)
- GI50 (SK-OV-3): 39.7 µM (inactive)
- GI50 (SK-MEL-5): 72.3 µM (inactive)
- GI50 (K562): > 100 µM (inactive)
- GI50 (SK-MEL-28): > 100 µM (inactive)
- GI50 (SF-539): 20.1 µM (inactive)
- GI50 (SF-268): 12.8 µM (inactive)
- GI50 (NCI-H23): 38.4 µM (inactive)
- GI50 (OVCAR-4): 27.3 µM (inactive)
- GI50 (IGROV-1): 14.5 µM (inactive)
- GI50 (NCI-H522): 13.4 µM (inactive)
- GI50 (786-0): 16.3 µM (inactive)
- GI50 (OVCAR-5): > 100 µM (inactive)
- GI50 (HCT-116): 88.3 µM (inactive)
- GI50 (NCI/ADR-RES): 15.6 µM (inactive)
- GI50 (OVCAR-8): 18.1 µM (inactive)
- GI50 (T47D): 11.5 µM (inactive)
- GI50 (A498): 94.6 µM (inactive)
- GI50 (RXF 393): 63 µM (inactive)
- GI50 (MDA-N): 4.56 µM (inactive)
- GI50 (RPMI-8226): > 100 µM (inactive)
- GI50 (COLO 205): > 100 µM (inactive)
- GI50 (UO-31): 11.9 µM (inactive)
- GI50 (CCRF-CEM): > 100 µM (inactive)
- GI50 (Hs-578T): 14.7 µM (inactive)
- GI50 (TK-10): > 100 µM (inactive)
- GI50 (NCI-H460): 22.8 µM (inactive)
- GI50 (ACHN): 17.9 µM (inactive)
- GI50 (SW-620): > 100 µM (inactive)
- GI50 (LOX IMVI): 47.1 µM (inactive)
- GI50 (SNB-19): 24.1 µM (inactive)
- GI50 (SN12C): 28 µM (inactive)
- GI50 (MOLT-4): > 100 µM (inactive)
- GI50 (MDA-MB-435): 57.7 µM (inactive)
- GI50 (Malme-3M): 25.4 µM (inactive)
- GI50 (SF-295): 44.8 µM (inactive)
- GI50 (HCT-15): 21.7 µM
- GI50 (KM12): 5.62 µM (inactive)
- GI50 (M14): 55.6 µM (inactive)
- GI50 (UACC-62): 67.1 µM (inactive)

Structure (SMILES): O=C(O)CNc1ccc(Cl)c(Cl)c1
- GI50 (EKVX): 23.1 µM (inactive)
- GI50 (HT-29): 40.6 µM (inactive)
- GI50 (U-251): 31.1 µM (inactive)
- GI50 (MCF7): 13.9 µM (inactive)
- GI50 (SNB-75): 26.6 µM (inactive)
- GI50 (A549): 32.1 µM (inactive)
- GI50 (OVCAR-3): 25.9 µM (inactive)
- GI50 (HL-60): 24 µM (inactive)
- GI50 (HOP-92): 15.8 µM (inactive)
- GI50 (NCI-H226): 27.5 µM (inactive)
- GI50 (UACC-257): 26.7 µM (inactive)
- GI50 (BT-549): 36.7 µM (inactive)
- GI50 (CAKI-1): 17.9 µM (inactive)
- GI50 (MDA-MB-231): 45.3 µM (inactive)
- GI50 (DU-145): 29.4 µM (inactive)
- GI50 (SK-OV-3): 37.8 µM (inactive)
- GI50 (SK-MEL-5): 26.5 µM (inactive)
- GI50 (K562): 25.1 µM (inactive)
- GI50 (SF-539): 33.5 µM (inactive)
- GI50 (SF-268): 28.9 µM (inactive)
- GI50 (NCI-H23): 34.4 µM (inactive)
- GI50 (OVCAR-4): 31.6 µM (inactive)
- GI50 (IGROV-1): 1.1 µM (active)
- GI50 (NCI-H522): 16.3 µM (inactive)
- GI50 (786-0): 24.7 µM (inactive)
- GI50 (PC-3): 24.6 µM (inactive)
- GI50 (OVCAR-5): 40.9 µM (inactive)
- GI50 (HCT-116): 19.2 µM (inactive)
- GI50 (NCI/ADR-RES): 28.6 µM (inactive)
- GI50 (OVCAR-8): 29 µM (inactive)
- GI50 (T47D): 15.6 µM (inactive)
- GI50 (A498): 30.4 µM (inactive)
- GI50 (RXF 393): 35.3 µM (inactive)
- GI50 (MDA-N): 23.7 µM (inactive)
- GI50 (RPMI-8226): 21.9 µM (inactive)
- GI50 (COLO 205): 18.5 µM (inactive)
- GI50 (UO-31): 24.9 µM (inactive)
- GI50 (CCRF-CEM): 31.6 µM (inactive)
- GI50 (Hs-578T): 33.6 µM (inactive)
- GI50 (TK-10): 20 µM (inactive)
- GI50 (NCI-H460): 23.6 µM (inactive)
- GI50 (ACHN): 20 µM (inactive)
- GI50 (SW-620): 23.9 µM (inactive)
- GI50 (LOX IMVI): 35.2 µM (inactive)
- GI50 (SNB-19): 34.5 µM (inactive)
- GI50 (SN12C): 32.7 µM (inactive)
- GI50 (HOP-62): 24 µM (inactive)
- GI50 (MOLT-4): 29.6 µM (inactive)
- GI50 (MDA-MB-435): 26.3 µM (inactive)
- GI50 (SF-295): 24.6 µM (inactive)
- GI50 (HCT-15): 8.83 µM
- GI50 (KM12): 19.1 µM (inactive)
- GI50 (M14): 27.4 µM (inactive)
- GI50 (UACC-62): 28.1 µM (inactive)
